Where a SMILES comes first, the peptide text is derived from it. Bridges are numbered along the chain shown (N, C = ends). [ ]: non-standard residue; d: D form. The star is where a group is joined. X1 = NC[C@@H](CC(=O)*)c1cccc(Cl)c1; Dab = NCC[C@H](N)C(=O)O; Dap = NC[C@H](N)C(=O)O
Columns and labels:
[1] = tested on: K. pneumoniae ATCC 10031 (SEN) and K. pneumoniae ATCC 700603 (MDR); assay: Adaptive laboratory evolution (ALE), relative MIC of evolved lines; assay type: cell-based, Klebsiella pneumoniae
Method in brief: (§1)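 Ten parallel populations per antibiotic–ancestor pair were evolved in MHB at 37 °C, starting near 50% growth-inhibiting drug. Every 72 h they were passaged into 0.5–2.5× increasing concentrations, keeping the highest-drug well with OD600 > 0.2.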

[2] = tested on: A. baumannii ATCC 17978 (SEN) and A. baumannii ATCC BAA-1605 (MDR); assay: as above; assay type: cell-based, Acinetobacter baumannii; conditions: AB-MDR (ATCC BAA 1605), evolved line 1; evolved vs ancestor
Method in brief: as §1

[3] = KP-MDR (Klebsiella pneumoniae ATCC 700603), evolved line 2
[4] = KP-MDR (Klebsiella pneumoniae ATCC 700603), evolved line 4
[5] = KP-MDR (Klebsiella pneumoniae ATCC 700603), evolved line 6
[6] = KP-MDR (Klebsiella pneumoniae ATCC 700603), evolved line 8
[7] = KP-MDR (Klebsiella pneumoniae ATCC 700603), evolved line 10
[8] = KP-SEN (Klebsiella pneumoniae ATCC 10031), evolved line 1
[9] = KP-SEN (Klebsiella pneumoniae ATCC 10031), evolved line 3
[10] = KP-SEN (Klebsiella pneumoniae ATCC 10031), evolved line 4
[11] = KP-SEN (Klebsiella pneumoniae ATCC 10031), evolved line 6
[12] = KP-SEN (Klebsiella pneumoniae ATCC 10031), evolved line 10

With `CC(C)C[C@@H]1NC(=O)[C@@H](Cc2ccccc2)NC(=O)[C@H](CCN)NC(=O)[C@@H](NC(=O)[C@H](CN)NC(=O)[C@@H](NC(=O)C[C@H](CN)c2cccc(Cl)c2)[C@@H](C)O)CCNC(=O)[C@H]([C@@H](C)O)NC(=O)[C@H](CCN)NC(=O)[C@H](CCN)NC1=O` [SPR206] (X1-T[Dap][Dab][Dab][dF]L[Dab][Dab]T; lactam 3-C (inferred); N-terminus assumed) the “Relative MIC” value ([1]; ALE, K. pneumoniae ATCC 700603 (KP-MDR), evolved line 7) was 512, the “Relative MIC” value ([1]; ALE, K. pneumoniae ATCC 700603 (KP-MDR), evolved line 8) was 1024 and the “Relative MIC” value ([1]; ALE, K. pneumoniae ATCC 700603 (KP-MDR), evolved line 9) was 1024. For the same compound, the “Relative MIC” value ([1]; ALE, K. pneumoniae ATCC 700603 (KP-MDR), evolved line 10) was 512, the “Relative MIC” value ([1]; ALE, Klebsiella pneumoniae ATCC 10031 (KP-SEN), evolved line 1) was 2048 and the “Relative MIC” value ([1]; ALE, Klebsiella pneumoniae ATCC 10031 (KP-SEN), evolved line 2) was 2. For the same compound, the “Relative MIC” value ([1]; ALE, Klebsiella pneumoniae ATCC 10031 (KP-SEN), evolved line 3) was 2048, the “Relative MIC” value ([1]; ALE, Klebsiella pneumoniae ATCC 10031 (KP-SEN), evolved line 4) was 2048 and the “Relative MIC” value ([1]; ALE, Klebsiella pneumoniae ATCC 10031 (KP-SEN), evolved line 6) was 2048. The “Relative MIC” value ([1]; ALE, Klebsiella pneumoniae ATCC 10031 (KP-SEN), evolved line 7) was 2, the “Relative MIC” value ([1]; ALE, Klebsiella pneumoniae ATCC 10031 (KP-SEN), evolved line 8) was 2 and the “Relative MIC” value ([1]; ALE, Klebsiella pneumoniae ATCC 10031 (KP-SEN), evolved line 10) was 2048. The “Relative MIC” value ([1]; ALE, Klebsiella pneumoniae ATCC 700603 (KP-MDR), evolved line 1) was 256, the “Relative MIC” value ([1]; ALE, Klebsiella pneumoniae ATCC 700603 (KP-MDR), evolved line 2) was 1024 and the “Relative MIC” value ([1]; ALE, Klebsiella pneumoniae ATCC 700603 (KP-MDR), evolved line 3) was 512. For the same compound, the “Relative MIC” value ([1]; ALE, Klebsiella pneumoniae ATCC 700603 (KP-MDR), evolved line 4) was 256, the “Relative MIC” value ([1]; ALE, Klebsiella pneumoniae ATCC 700603 (KP-MDR), evolved line 5) was 256 and the “Relative MIC” value ([1]; ALE, Klebsiella pneumoniae ATCC 700603 (KP-MDR), evolved line 6) was 512. The MIC of evolved line ([1]; KP-MDR (K. pneumoniae ATCC 700603), evolved line 1 of the given antibiotic) was 128 µg/mL, the “Relative MIC” value ([1]; KP-MDR (K. pneumoniae ATCC 700603), evolved line 1 vs ancestor) was 256 and the MIC of evolved line ([1]; KP-MDR (K. pneumoniae ATCC 700603), evolved line 2 of the given antibiotic) was 512 µg/mL. For the same compound, the “Relative MIC” value ([1]; KP-MDR (K. pneumoniae ATCC 700603), evolved line 2 vs ancestor) was 1024, the MIC of evolved line ([1]; KP-MDR (K. pneumoniae ATCC 700603), evolved line 3 of the given antibiotic) was 256 µg/mL and the “Relative MIC” value ([1]; KP-MDR (K. pneumoniae ATCC 700603), evolved line 3 vs ancestor) was 512. The MIC of evolved line ([1]; KP-MDR (K. pneumoniae ATCC 700603), evolved line 4 of the given antibiotic) was 128 µg/mL, the “Relative MIC” value ([1]; KP-MDR (K. pneumoniae ATCC 700603), evolved line 4 vs ancestor) was 256 and the MIC of evolved line ([1]; KP-MDR (K. pneumoniae ATCC 700603), evolved line 5 of the given antibiotic) was 128 µg/mL. The “Relative MIC” value ([1]; KP-MDR (K. pneumoniae ATCC 700603), evolved line 5 vs ancestor) was 256, the MIC of evolved line ([1]; KP-MDR (K. pneumoniae ATCC 700603), evolved line 6 of the given antibiotic) was 256 µg/mL and the “Relative MIC” value ([1]; KP-MDR (K. pneumoniae ATCC 700603), evolved line 6 vs ancestor) was 512. The MIC of evolved line ([1]; KP-MDR (K. pneumoniae ATCC 700603), evolved line 7 of the given antibiotic) was 256 µg/mL, the “Relative MIC” value ([1]; KP-MDR (K. pneumoniae ATCC 700603), evolved line 7 vs ancestor) was 512 and the MIC of evolved line ([1]; KP-MDR (K. pneumoniae ATCC 700603), evolved line 8 of the given antibiotic) was 512 µg/mL. The “Relative MIC” value ([1]; KP-MDR (K. pneumoniae ATCC 700603), evolved line 8 vs ancestor) was 1024, the MIC of evolved line ([1]; KP-MDR (K. pneumoniae ATCC 700603), evolved line 9 of the given antibiotic) was 512 µg/mL and the “Relative MIC” value ([1]; KP-MDR (K. pneumoniae ATCC 700603), evolved line 9 vs ancestor) was 1024. The MIC of evolved line ([1]; KP-MDR (K. pneumoniae ATCC 700603), evolved line 10 of the given antibiotic) was 256 µg/mL, the “Relative MIC” value ([1]; KP-MDR (K. pneumoniae ATCC 700603), evolved line 10 vs ancestor) was 512 and the “Relative MIC” value ([1]; KP-MDR (Klebsiella pneumoniae ATCC 700603), evolved line 1) was 256. For the same compound, the “Relative MIC” value [1, 3] was 1024, the “Relative MIC (log10)” value [1, 3] was 3.0103 log10 and the “Relative MIC” value ([1]; KP-MDR (Klebsiella pneumoniae ATCC 700603), evolved line 3) was 512. For the same compound, the “Relative MIC” value [1, 4] was 256, the “Relative MIC (log10)” value [1, 4] was 2.408 log10 and the “Relative MIC” value ([1]; KP-MDR (Klebsiella pneumoniae ATCC 700603), evolved line 5) was 256. The “Relative MIC” value [1, 5] was 512, the “Relative MIC (log10)” value [1, 5] was 2.709 log10 and the “Relative MIC” value ([1]; KP-MDR (Klebsiella pneumoniae ATCC 700603), evolved line 7) was 512. The “Relative MIC” value [1, 6] was 1024, the “Relative MIC (log10)” value [1, 6] was 3.0103 log10 and the “Relative MIC” value ([1]; KP-MDR (Klebsiella pneumoniae ATCC 700603), evolved line 9) was 1024. For the same compound, the “Relative MIC” value [1, 7] was 512, the “Relative MIC (log10)” value [1, 7] was 2.709 log10 and the MIC of evolved line ([1]; KP-SEN (K. pneumoniae ATCC 10031), evolved line 1 of the given antibiotic) was 1020 µg/mL. For the same compound, the “Relative MIC” value ([1]; KP-SEN (K. pneumoniae ATCC 10031), evolved line 1 vs ancestor) was 2048, the MIC of evolved line ([1]; KP-SEN (K. pneumoniae ATCC 10031), evolved line 2 of the given antibiotic) was 1 µg/mL and the “Relative MIC” value ([1]; KP-SEN (K. pneumoniae ATCC 10031), evolved line 2 vs ancestor) was 2. For the same compound, the MIC of evolved line ([1]; KP-SEN (K. pneumoniae ATCC 10031), evolved line 3 of the given antibiotic) was 1020 µg/mL, the “Relative MIC” value ([1]; KP-SEN (K. pneumoniae ATCC 10031), evolved line 3 vs ancestor) was 2048 and the MIC of evolved line ([1]; KP-SEN (K. pneumoniae ATCC 10031), evolved line 4 of the given antibiotic) was 1020 µg/mL. For the same compound, the “Relative MIC” value ([1]; KP-SEN (K. pneumoniae ATCC 10031), evolved line 4 vs ancestor) was 2048, the MIC of evolved line ([1]; KP-SEN (K. pneumoniae ATCC 10031), evolved line 6 of the given antibiotic) was 1020 µg/mL and the “Relative MIC” value ([1]; KP-SEN (K. pneumoniae ATCC 10031), evolved line 6 vs ancestor) was 2048. The MIC of evolved line ([1]; KP-SEN (K. pneumoniae ATCC 10031), evolved line 7 of the given antibiotic) was 1 µg/mL, the “Relative MIC” value ([1]; KP-SEN (K. pneumoniae ATCC 10031), evolved line 7 vs ancestor) was 2 and the MIC of evolved line ([1]; KP-SEN (K. pneumoniae ATCC 10031), evolved line 8 of the given antibiotic) was 1 µg/mL. The “Relative MIC” value ([1]; KP-SEN (K. pneumoniae ATCC 10031), evolved line 8 vs ancestor) was 2, the MIC of evolved line ([1]; KP-SEN (K. pneumoniae ATCC 10031), evolved line 10 of the given antibiotic) was 1020 µg/mL and the “Relative MIC” value ([1]; KP-SEN (K. pneumoniae ATCC 10031), evolved line 10 vs ancestor) was 2048. For the same compound, the “Relative MIC” value [1, 8] was 2048, the “Relative MIC (log10)” value [1, 8] was 3.311 log10 and the “Relative MIC” value ([1]; KP-SEN (Klebsiella pneumoniae ATCC 10031), evolved line 2) was 2. For the same compound, the “Relative MIC” value [1, 9] was 2048, the “Relative MIC (log10)” value [1, 9] was 3.311 log10 and the “Relative MIC” value [1, 10] was 2048. For the same compound, the “Relative MIC (log10)” value [1, 10] was 3.311 log10, the “Relative MIC” value [1, 11] was 2048 and the “Relative MIC (log10)” value [1, 11] was 3.311 log10. For the same compound, the “Relative MIC” value ([1]; KP-SEN (Klebsiella pneumoniae ATCC 10031), evolved line 8) was 2, the “Relative MIC” value [1, 12] was 2048 and the “Relative MIC (log10)” value [1, 12] was 3.311 log10. The “Relative MIC” value ([1]; KP-SEN, Klebsiella pneumoniae ATCC 10031, evolved line 7) was 2, the “Relative MIC” value ([1]; Klebsiella pneumoniae ATCC 10031 (KP-SEN), evolved line 1) was 2048 and the “Relative MIC” value ([1]; Klebsiella pneumoniae ATCC 10031 (KP-SEN), evolved line 2) was 2. For the same compound, the “Relative MIC” value ([1]; Klebsiella pneumoniae ATCC 10031 (KP-SEN), evolved line 3) was 2048, the “Relative MIC” value ([1]; Klebsiella pneumoniae ATCC 10031 (KP-SEN), evolved line 4) was 2048 and the “Relative MIC” value ([1]; Klebsiella pneumoniae ATCC 10031 (KP-SEN), evolved line 6) was 2048. For the same compound, the “Relative MIC” value ([1]; Klebsiella pneumoniae ATCC 10031 (KP-SEN), evolved line 7) was 2, the “Relative MIC” value ([1]; Klebsiella pneumoniae ATCC 10031 (KP-SEN), evolved line 8) was 2 and the “Relative MIC” value ([1]; Klebsiella pneumoniae ATCC 10031 (KP-SEN), evolved line 10) was 2048. For the same compound, the “Relative MIC” value ([1]; Klebsiella pneumoniae ATCC 700603 (KP-MDR), evolved line 1) was 256, the “Relative MIC” value ([1]; Klebsiella pneumoniae ATCC 700603 (KP-MDR), evolved line 2) was 1024 and the “Relative MIC” value ([1]; Klebsiella pneumoniae ATCC 700603 (KP-MDR), evolved line 3) was 512. The “Relative MIC” value ([1]; Klebsiella pneumoniae ATCC 700603 (KP-MDR), evolved line 4) was 256, the “Relative MIC” value ([1]; Klebsiella pneumoniae ATCC 700603 (KP-MDR), evolved line 5) was 256 and the “Relative MIC” value ([1]; Klebsiella pneumoniae ATCC 700603 (KP-MDR), evolved line 6) was 512. For the same compound, the “Relative MIC” value ([1]; Klebsiella pneumoniae ATCC 700603 (KP-MDR), evolved line 7) was 512, the “Relative MIC” value ([1]; Klebsiella pneumoniae ATCC 700603 (KP-MDR), evolved line 8) was 1024 and the “Relative MIC” value ([1]; Klebsiella pneumoniae ATCC 700603 (KP-MDR), evolved line 9) was 1024. The “Relative MIC” value ([1]; Klebsiella pneumoniae ATCC 700603 (KP-MDR), evolved line 10) was 512 and the “Relative MIC” value [2] was 2048.
